According to patent publication US11952363B2, “Piperazine compounds for the treatment of autoimmune disease” (Hoffmann-La Roche Inc., priority 2018, dated 2024):

Key:
CYP2D6 = target: T1, CYP2D6 (Homo sapiens, UniProt P10635); assay: CYP inhibition assay in human liver microsome; format: in vitro ADME; details: liver microsomes, probe dextromethorphan, 10 μM compound, dextromethorphan substrate, percentage inhibition < 0: not or weak inhibitor, read-out: CYP 2D6 inhibition % @10 μM
T1 construct: tissue BD-Gentest 452117; host or cells: human liver microsomes
Experimental: This is a high throughput screening assay used for assessment of reversible inhibition of CYP2D6 activity of test compounds in human liver microsome (HLM) in early discovery stage.
10 mM DMSO stock solutions of test compounds were diluted in DMSO to generate 2 mM intermediate stock solution. 250 nL of intermediate stock solution were transferred in duplicate into 3 separate 384 well microtitre plates (assay-ready plates). A mixture of HLM and each substrate was made up. 45 μL of HLM substrate mix was then transferred to each well of an assay ready plate and mixed. The negative (solvent) and positive control (standard inhibitor for CYP 2D6) were included in each assay ready plate. The assay ready plate was warmed to 37° C. in an incubator over 10 minutes. 5μL pre-warmed NADPH regenerating system was added to each incubation well to start the reaction. Final incubation volume was 50 μL. The assay plate then was placed back in the 37° C. incubator. After 10 minutes incubation, incubates were quenched by addition of 50 μL 100% acetonitrile containing internal standards (20 ng/mL D3-Dextrorphan). The supernatants were collected for RapidFire/MS/MS analysis.
RapidFire online solid phase extraction/sample injection system (Agilent) coupled with API4000 triple quadrupole mass spectrometer (AB Sciex) were used for sample analysis. The mobile phase composed of acetonitrile and water supplemented with 0.1% formic acid. A C4 solid phase extraction cartridge is used for sample separation. MS detection is achieved in positive ion MRM mode.
Peak areas for substrate, metabolite and internal standard are determined using the RapidFire integrator software (version 3.6.12009.12296). Peak area ratios (PAR) of metabolite and internal standard (stable-labelled metabolite) are then calculated. The measurement window for each experiment is then defined:
PAR (0% activity)=average PAR for all incubations containing concentrated inhibitor;
Par (100% activity)=average PAR for all incubations containing no inhibitor (DMSO controls);
% Activity (test inhibitor)
=[PAR(test inhibitor)-PAR(0% activity)]/[PAR(100% activity)-PAR(0% activity)];
% Inhibition (test inhibitor)=100-% Activity (test inhibitor).

human TLR8 = target: T2, human TLR8 (Homo sapiens, UniProt Q9NR97); assay: HEK293-Blue-hTLR-8 cells assay (SEAP reporter, R848 stimulation); format: cell-based; details: HEK293-Blue-hTLR8 cells, R848 ligand, 20 hrs incubation; read-out: HEK/hTLR8 IC50
T2 sequence (Q9NR97 27-1041): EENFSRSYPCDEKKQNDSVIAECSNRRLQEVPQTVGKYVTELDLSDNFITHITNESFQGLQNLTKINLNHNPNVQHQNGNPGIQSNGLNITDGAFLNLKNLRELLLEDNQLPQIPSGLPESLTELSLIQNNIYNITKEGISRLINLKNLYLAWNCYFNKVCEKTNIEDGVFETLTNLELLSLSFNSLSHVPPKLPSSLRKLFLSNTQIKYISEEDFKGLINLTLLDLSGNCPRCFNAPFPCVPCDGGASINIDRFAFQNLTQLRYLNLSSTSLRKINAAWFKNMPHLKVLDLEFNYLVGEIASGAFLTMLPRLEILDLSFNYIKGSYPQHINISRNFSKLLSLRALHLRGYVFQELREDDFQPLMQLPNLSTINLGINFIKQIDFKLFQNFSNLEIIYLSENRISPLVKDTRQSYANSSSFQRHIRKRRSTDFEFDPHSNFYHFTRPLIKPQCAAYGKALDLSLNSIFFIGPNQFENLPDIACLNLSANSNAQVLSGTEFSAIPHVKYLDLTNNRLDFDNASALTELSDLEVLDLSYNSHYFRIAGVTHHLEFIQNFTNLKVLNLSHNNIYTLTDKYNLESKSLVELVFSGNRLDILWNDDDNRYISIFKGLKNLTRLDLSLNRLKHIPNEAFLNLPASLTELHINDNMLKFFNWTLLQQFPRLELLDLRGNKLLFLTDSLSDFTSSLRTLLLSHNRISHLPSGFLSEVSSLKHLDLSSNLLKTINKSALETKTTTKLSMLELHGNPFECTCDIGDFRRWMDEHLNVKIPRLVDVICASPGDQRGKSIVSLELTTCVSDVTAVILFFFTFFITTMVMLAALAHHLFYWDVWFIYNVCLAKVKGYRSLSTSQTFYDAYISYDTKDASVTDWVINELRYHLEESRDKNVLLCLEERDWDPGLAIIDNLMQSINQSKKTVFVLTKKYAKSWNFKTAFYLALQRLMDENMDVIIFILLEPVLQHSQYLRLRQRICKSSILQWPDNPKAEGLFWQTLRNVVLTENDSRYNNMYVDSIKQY
Experimental: The following tests were carried out in order to determine the activity of the compounds of formula (I) in HEK293-Blue-hTLR-7/8/9 cells assay.
A stable HEK293-Blue-hTLR-8 cell line was purchased from InvivoGen (Cat.#: hkb-htlr8, San Diego, California, USA). These cells were originally designed for studying the stimulation of human TLR8 by monitoring the activation of NF-κB. A SEAP (secreted embryonic alkaline phosphatase) reporter gene was placed under the control of the IFN-β minimal promoter fused to five NF-κB and AP-1-binding sites. The SEAP was induced by activating NF-κB and. AP-1 via stimulating HEK-Blue hTLR8 cells with TLR8 ligands. Therefore the reporter expression was declined by TLR8 antagonist under the stimulation of a ligand, such as R848, for incubation of 20 hrs. The cell culture supernatant SEAP reporter activity was determined using QUANTI-Blue™ kit (Cat.#: rep-qb1, Invivogen, San Diego, Ca, USA) at a wavelength of 640 nm, a detection medium that tunas purple or blue in the presence of alkaline phosphatase.
HEK293-Blue-hTLR8 cells were incubated at a density of 250,000˜450,000 cells/mL in a volume of 170 μL in a 96-well plate in Dulbecco's Modified Eagle's medium (DMEM) containing 4.5 g/L glucose, 50 U/mL penicillin, […], […], 2 mM L-glutamine, 10% (v/v) heat-inactivated fetal bovine serum with addition of 20 μL test compound in a serial dilution in the presence of final DMSO at 1% and 10 μL of 60 uM R848 in above DMEM, perform incubation under 37° C. in a CO2 incubator for 20 hrs. Then 20 μL of the supernatant from each well was incubated with […] Quanti-blue substrate solution at 37° C. for 2 hrs and the absorbance was read at 620-655 nm using a spectrophotometer. The signalling pathway that TLR8 activation leads to downstream NF-κB activation has been widely accepted, and therefore similar reporter assay was modified for evaluating TLR8 antagonist.

T1 sequence (P10635 whole entry): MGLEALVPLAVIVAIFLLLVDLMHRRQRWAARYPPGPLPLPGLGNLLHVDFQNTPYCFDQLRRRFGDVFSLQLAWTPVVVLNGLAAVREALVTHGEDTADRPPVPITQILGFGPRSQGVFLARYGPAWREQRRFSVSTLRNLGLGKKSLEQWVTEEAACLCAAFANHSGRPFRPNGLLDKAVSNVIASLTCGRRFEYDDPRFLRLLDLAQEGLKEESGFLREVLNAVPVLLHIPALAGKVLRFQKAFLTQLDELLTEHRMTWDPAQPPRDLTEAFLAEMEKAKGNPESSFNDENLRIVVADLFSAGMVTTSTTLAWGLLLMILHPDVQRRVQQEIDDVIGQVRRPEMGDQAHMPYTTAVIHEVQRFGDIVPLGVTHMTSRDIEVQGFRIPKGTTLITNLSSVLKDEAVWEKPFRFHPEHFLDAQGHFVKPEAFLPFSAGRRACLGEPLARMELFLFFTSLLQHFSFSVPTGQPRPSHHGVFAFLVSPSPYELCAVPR

Question: How did the inhibition at 10 min, 10 µM (CYP2D6) turn out when `C[C@@H]1CN(c2ccc(C#N)c3ncccc23)C[C@H](C)N1Cc1ccc(N2CCN(C(=O)C3CCCN3)CC2)cn1` (stereo partly drawn) [Example 10, 5-[(3R,5S)-3,5-Dimethyl-4-[[5-[4-(pyrrolidine-2-carbonyl)piperazin-1-yl]-2-pyridyl]methyl]piperazin-1-yl]quinoline-8-carbonitrile] was run?
Answer: 4.5%

Question: And the IC50 (human TLR8)?
Answer: 52 nM

Question: Which results are given for `C[C@@H]1CN(c2ccc(C#N)c3ncccc23)C[C@H](C)N1Cc1ccc(N2CCN(C(=O)CN(C)C)CC2)cn1` [Example 11, 5-[(3S,5R)-4-[[5-[4-[2-(Dimethylamino)acetyl]piperazin-1-yl]-2-pyridyl]methyl]-3,5-dimethyl-piperazin-1-yl]quinoline-8-carbonitrile]?
Answer: inhibition at 10 min, 10 µM (CYP2D6): 23%; IC50 (human TLR8): 35 nM

Question: Which results are given for `C[C@@H]1CN(c2ccc(C#N)c3ncccc23)C[C@H](C)N1CC(=O)N1CCc2ccc(N3CCNCC3)cc2C1` [Example 15, 5-[(3R,5S)-3,5-dimethyl-4-[2-pxp-2-(7-piperazin-1-yl-3,4-dihydro-1H-isoquinolin-2-yl)ethyl]piperazin-1-yl]quinoline-8-carbonitrile]?
Answer: inhibition at 10 min, 10 µM (CYP2D6): 19%; IC50 (human TLR8): 46 nM

Question: Which results are given for `C[C@@H]1CN(c2ccc(C#N)c3ncccc23)C[C@H](C)N1CC(=O)N1Cc2ccc(N3CCNCC3)cc2C1` [Example 16, 5-[(3R,5S)-3,5-Dimethyl-4-[2-oxo-2-(5-piperazin-1-ylisoindolin-2-yl)ethyl]piperazin-1-yl]quinoline-8-carbonitrile]?
Answer: inhibition at 10 min, 10 µM (CYP2D6): 2%; IC50 (human TLR8): 55 nM

Question: Which inhibition at 10 min, 10 µM (CYP2D6) does the source give for `CC1CN(c2ccc(C#N)c3ncccc23)CCN1CC(=O)Nc1ccc(N2CCNCC2)cc1` (centres unmarked) [Example 17, 2-[4-(8-Cyano-5-quinolyl)-2-methyl-piperazin-1-yl]-N-(4-piperazin-1-ylpheny)acetamide] here?
Answer: 7%

Question: And the IC50 (human TLR8)?
Answer: 58 nM

Question: What does the source list for `CC1CN(c2ccc(C#N)c3ncccc23)CCN1CC(=O)Nc1ccc2c(c1)CCNC2` (centres unmarked) [Example 18, 2-[4-(8-Cyano-5-quinolyl)-2-methyl-piperazin-1yl]-N-(1,2,3,4-tetrahydroisoquinolin-6-yl)acetamide]?
Answer: inhibition at 10 min, 10 µM (CYP2D6): 12.5%; IC50 (human TLR8): 40 nM

Question: `CC1CN(c2ccc(C#N)c3ncccc23)CCN1CC(=O)N1CCC(C2CCN(C)CC2)CC1` (centres unmarked) [Example 19, 5-[3-methyl-4-[2-[4-(1-methyl-4-piperidyl)-1-piperidyl]-2-oxo-ethyl]piperazin-1-yl]quinoline-8-carbonitrile] was tested. Which inhibition at 10 min, 10 µM (CYP2D6) did it give?
Answer: 14.5%

Question: And the IC50 (human TLR8)?
Answer: 93 nM
